Structures are written as SMILES.

The target in experiment [1] is Matrix metalloproteinase-9 (Homo sapiens, UniProt P14780).
Description: Inhibitory activity against the Matrix metalloprotease-9
In the next experiment the target is Neutrophil collagenase (Homo sapiens, UniProt P22894).
In a further experiment the target is T1, Interstitial collagenase (Homo sapiens, UniProt P03956).
T1 sequence (P03956 whole entry): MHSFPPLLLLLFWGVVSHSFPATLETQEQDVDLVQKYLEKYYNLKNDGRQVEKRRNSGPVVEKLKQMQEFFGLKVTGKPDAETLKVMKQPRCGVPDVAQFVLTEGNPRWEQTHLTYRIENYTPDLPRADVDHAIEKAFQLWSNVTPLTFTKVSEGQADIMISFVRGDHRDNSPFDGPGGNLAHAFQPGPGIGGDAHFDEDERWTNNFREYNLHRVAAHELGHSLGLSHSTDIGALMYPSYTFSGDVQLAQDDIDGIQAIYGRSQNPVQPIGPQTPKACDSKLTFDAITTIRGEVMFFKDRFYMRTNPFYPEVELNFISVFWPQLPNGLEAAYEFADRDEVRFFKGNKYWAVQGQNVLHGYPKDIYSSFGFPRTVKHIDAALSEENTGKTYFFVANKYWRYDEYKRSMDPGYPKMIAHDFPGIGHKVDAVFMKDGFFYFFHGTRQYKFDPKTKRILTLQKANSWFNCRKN

The target in experiment [2] is 72 kDa type IV collagenase (Homo sapiens, UniProt P08253).
72 kDa type IV collagenase, sequence (P08253 whole entry): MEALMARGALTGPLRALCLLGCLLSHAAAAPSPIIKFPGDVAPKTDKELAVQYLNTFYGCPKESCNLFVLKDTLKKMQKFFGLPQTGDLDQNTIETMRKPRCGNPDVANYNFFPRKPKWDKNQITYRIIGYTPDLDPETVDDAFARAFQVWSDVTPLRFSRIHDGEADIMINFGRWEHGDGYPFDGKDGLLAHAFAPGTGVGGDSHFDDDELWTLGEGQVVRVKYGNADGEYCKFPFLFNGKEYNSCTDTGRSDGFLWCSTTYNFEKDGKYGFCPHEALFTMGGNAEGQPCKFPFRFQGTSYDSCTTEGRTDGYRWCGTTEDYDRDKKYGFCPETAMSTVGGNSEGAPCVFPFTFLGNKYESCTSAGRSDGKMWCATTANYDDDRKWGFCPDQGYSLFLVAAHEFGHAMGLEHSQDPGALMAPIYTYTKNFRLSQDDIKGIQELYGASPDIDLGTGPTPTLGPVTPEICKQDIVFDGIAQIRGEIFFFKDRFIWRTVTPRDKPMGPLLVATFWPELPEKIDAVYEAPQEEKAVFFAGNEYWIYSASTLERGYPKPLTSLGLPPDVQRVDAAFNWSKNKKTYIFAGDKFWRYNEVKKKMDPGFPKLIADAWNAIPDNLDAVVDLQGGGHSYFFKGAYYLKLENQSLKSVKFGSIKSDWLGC
Description: Inhibitory activity against the Matrix Metalloprotease 2 (MMP-2)

Neutrophil collagenase, sequence (P22894 whole entry): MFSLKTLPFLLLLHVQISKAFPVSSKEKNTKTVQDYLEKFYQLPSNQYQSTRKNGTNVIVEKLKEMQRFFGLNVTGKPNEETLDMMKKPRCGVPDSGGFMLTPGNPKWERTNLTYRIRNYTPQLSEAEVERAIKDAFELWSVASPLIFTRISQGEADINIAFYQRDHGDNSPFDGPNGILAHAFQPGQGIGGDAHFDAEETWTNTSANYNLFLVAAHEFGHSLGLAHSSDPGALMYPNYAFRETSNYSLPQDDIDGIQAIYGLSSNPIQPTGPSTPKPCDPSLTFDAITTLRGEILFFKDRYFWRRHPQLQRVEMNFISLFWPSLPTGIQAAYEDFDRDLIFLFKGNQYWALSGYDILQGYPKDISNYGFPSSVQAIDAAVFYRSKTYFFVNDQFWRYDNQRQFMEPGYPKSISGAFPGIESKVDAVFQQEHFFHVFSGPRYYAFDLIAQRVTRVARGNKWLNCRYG
Matrix metalloproteinase-9, sequence (P14780 whole entry): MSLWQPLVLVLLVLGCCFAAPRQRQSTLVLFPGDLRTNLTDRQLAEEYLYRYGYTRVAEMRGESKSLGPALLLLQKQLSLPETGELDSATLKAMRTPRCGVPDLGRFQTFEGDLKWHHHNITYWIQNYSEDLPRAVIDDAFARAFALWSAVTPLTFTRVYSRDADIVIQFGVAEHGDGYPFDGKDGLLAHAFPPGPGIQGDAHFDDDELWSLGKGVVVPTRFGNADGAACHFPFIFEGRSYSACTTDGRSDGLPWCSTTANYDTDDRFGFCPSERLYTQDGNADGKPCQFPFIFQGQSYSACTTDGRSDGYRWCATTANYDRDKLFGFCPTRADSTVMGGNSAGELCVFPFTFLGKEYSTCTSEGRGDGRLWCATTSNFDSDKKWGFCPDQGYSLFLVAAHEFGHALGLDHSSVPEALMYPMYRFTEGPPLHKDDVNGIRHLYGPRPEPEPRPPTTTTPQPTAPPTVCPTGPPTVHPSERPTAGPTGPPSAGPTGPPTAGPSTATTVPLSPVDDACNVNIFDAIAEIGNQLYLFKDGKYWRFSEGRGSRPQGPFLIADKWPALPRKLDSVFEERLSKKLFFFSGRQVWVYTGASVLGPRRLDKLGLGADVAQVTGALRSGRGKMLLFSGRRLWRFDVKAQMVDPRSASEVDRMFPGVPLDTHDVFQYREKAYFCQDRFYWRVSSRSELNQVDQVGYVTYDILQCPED
Description for Interstitial collagenase: Inhibitory activity against the Matrix Metalloprotease 1 (MMP-1)
Description for Neutrophil collagenase: Inhibitory activity against the Matrix Metalloprotease-8

The term Ki denotes a dissociation constant, usually derived from enzyme kinetics or from competition with a known ligand. Higher therefore signals a looser hold on the target. For the molecule `Cc1ccc(S(=O)(=O)NC(=O)Nc2cccc(S(=O)(=O)N(CC(=O)O)Cc3ccc([N+](=O)[O-])cc3)c2)cc1`, the inhibitory constant (Ki) in experiment [1] is 21 nM; on Neutrophil collagenase, 30 nM; at Interstitial collagenase it was > 100 nM; in experiment [2], 21 nM.
For the molecule `O=C(O)CN(Cc1ccc([N+](=O)[O-])cc1)S(=O)(=O)c1cccc(NC(=O)NS(=O)(=O)c2ccccc2)c1`, the Ki is 22 nM in experiment [1], 27 nM at Neutrophil collagenase, > 100 nM on Interstitial collagenase and 19 nM in experiment [2].
In the same order, the values of `Cc1ccc(S(=O)(=O)N(CC(=O)NO)Cc2ccc([N+](=O)[O-])cc2)cc1` are 27 nM, 24 nM, 30 nM and 20 nM.
Turning to `Cc1ccc(S(=O)(=O)NC(=O)Nc2ccc(S(=O)(=O)N(CC(=O)O)Cc3ccc([N+](=O)[O-])cc3)cc2)cc1`, the Ki was 25 nM in experiment [1], 28 nM on Neutrophil collagenase, 94 nM at Interstitial collagenase and 24 nM in experiment [2].
The like results for `Cc1ccc(S(=O)(=O)NC(=O)Nc2cccc(S(=O)(=O)N(CC(=O)NO)Cc3ccc([N+](=O)[O-])cc3)c2)cc1` were, in that order, 3.1 nM, 2.1 nM, 53 nM and 2.5 nM.
As for `O=C(CN(Cc1ccc([N+](=O)[O-])cc1)Sc1ccc([N+](=O)[O-])cc1)NO`, the Ki in experiment [1] amounted to 11 nM; on Neutrophil collagenase, 8 nM; at Interstitial collagenase, 18 nM; in experiment [2] it was 10 nM.

Source of the values: ChEMBL document CHEMBL1132937, “Protease inhibitors: synthesis of potent bacterial collagenase and matrix metalloproteinase inhibitors incorporating N-4-nitrobenzylsulfonylglycine hydroxamate moieties” (J Med Chem, 2000).
